This note sets out measurements from US12612410B2 (CHILDREN'S HOSPITAL MEDICAL CENTER, priority 2020, dated 2026).

For the assay, the target named is T1, FLT3 ITD, D835V (Homo sapiens, UniProt P36888, D835V, form not given).
T1 construct: fused on or other part: DNA tag for qPCR detection (T7 phage fusion or DNA-tagged protein from HEK-293 cells)
T1 sequence (P36888 1-993 D835V): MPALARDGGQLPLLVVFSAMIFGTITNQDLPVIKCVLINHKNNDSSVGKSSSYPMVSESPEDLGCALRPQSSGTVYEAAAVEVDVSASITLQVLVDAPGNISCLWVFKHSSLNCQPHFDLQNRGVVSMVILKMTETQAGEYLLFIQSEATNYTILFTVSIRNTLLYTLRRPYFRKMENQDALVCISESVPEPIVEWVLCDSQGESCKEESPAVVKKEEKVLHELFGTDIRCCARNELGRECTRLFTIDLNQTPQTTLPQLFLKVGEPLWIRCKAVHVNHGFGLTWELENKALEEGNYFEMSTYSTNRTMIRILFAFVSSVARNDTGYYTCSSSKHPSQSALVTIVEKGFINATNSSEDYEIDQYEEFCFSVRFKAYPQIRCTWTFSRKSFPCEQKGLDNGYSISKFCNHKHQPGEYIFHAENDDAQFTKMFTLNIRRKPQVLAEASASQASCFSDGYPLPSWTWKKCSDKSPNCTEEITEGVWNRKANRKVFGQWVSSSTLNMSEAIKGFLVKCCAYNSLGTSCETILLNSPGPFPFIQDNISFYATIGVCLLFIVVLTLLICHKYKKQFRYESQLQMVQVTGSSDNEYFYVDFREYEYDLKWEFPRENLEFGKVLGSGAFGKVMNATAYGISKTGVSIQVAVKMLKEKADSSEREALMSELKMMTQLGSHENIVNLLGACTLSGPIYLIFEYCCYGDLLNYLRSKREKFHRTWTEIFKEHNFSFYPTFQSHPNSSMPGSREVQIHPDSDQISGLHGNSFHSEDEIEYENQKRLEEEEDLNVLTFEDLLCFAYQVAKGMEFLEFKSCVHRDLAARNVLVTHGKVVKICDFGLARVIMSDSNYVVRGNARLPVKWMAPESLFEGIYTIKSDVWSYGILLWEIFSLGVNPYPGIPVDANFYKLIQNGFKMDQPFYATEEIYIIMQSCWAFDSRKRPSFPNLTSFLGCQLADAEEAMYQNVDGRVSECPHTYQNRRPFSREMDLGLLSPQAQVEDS
In words: DiscoverX KINOMEscan competition binding, FLT3 ITD, D835V. The text has this:
Kinase binding data were obtained for various exemplary compounds prepared according to Examples 1-24 using the DiscoverX KINOMVIEscan® active site-directed competition binding site-directed assay protocol described below. […] As a result, the data report thermodynamic interaction affinities (Kd values), rather than IC50 values that are dependent on ATP concentrations. The assay uses a DNA-tagged version of the protein kinase, and an immobilized ligand bound to a solid support. Compounds that directly or indirectly prevent kinase binding to the immobilized ligand reduce the amount of kinase captured on the solid support, which is detected using an ultra-sensitive qPCR method. Affinity constants reported from the assay have been reported to be independent of the immobilized ligand used that is coupled to the solid support (See supplemental information in Fabian, M. A. et. al., (2005) Nat. Biotechnol. 23, 329-336; Wodicka, L. M. et. al., (2010) Chem. Biol. 17, 1241-1249.)
Kinase-tagged T7 phage strains were prepared in an E. coli host derived from the BL21 strain. E. coli were grown to log-phase and infected with T7 phage and incubated with shaking at 32° C. until lysis. The lysates were centrifuged and filtered to remove cell debris. The remaining kinases were produced in HEK-293 cells and subsequently tagged with DNA for qPCR detection. Streptavidin-coated magnetic beads were treated with biotinylated small molecule ligands for 30 minutes at room temperature to generate affinity resins for kinase assays. The liganded beads were blocked with excess biotin and washed with blocking buffer (SeaBlock (Pierce), 1% BSA, 0.05% Tween 20, 1 mM DTT) to remove unbound ligand and to reduce non-specific binding. Binding reactions were assembled by combining kinases, liganded affinity beads, and test compounds in 1× binding buffer (20% SeaBlock, 0.17×PBS, 0.05% Tween 20, 6 mM DTT). Test compounds were prepared as 111× stocks in 100% DMSO. Kds were determined using an 11-point 3-fold compound dilution series with three DMSO control points. All compounds for Kd measurements are distributed by acoustic transfer (non-contact dispensing) in 100% DMSO. The compounds were then diluted directly into the assays such that the final concentration of DMSO was 0.9%. All reactions were performed in polypropylene 384-well plates. Each was a final volume of 0.02 mL. The assay plates were incubated at room temperature with shaking for 1 hour and the affinity beads were washed with wash buffer (1×PBS, 0.05% Tween 20). The beads were then re-suspended in elution buffer (1×PBS, 0.05% Tween 20, 0.5 μM nonbiotinylated affinity ligand) and incubated at room temperature with shaking for 30 minutes. The kinase concentration in the eluates was measured by qPCR.
Binding constants (Kds) were calculated with a standard dose-response curve using the Hill equation. The Hill Slope was set to −1. Curves were fitted using a non-linear least square fit with the Levenberg-Marquardt algorithm.
The Kd is the concentration at which binding is half-saturated. The low end stands for higher affinity, the high end for lower affinity. The molecule `CC1(c2cn3c(-c4cccc(N[C@H]5CNC[C@@H]5F)n4)cnc3cn2)CC1` [Compound 1, N-((3S,4S)-4-fluoropyrrolidin-3-yl)-6-(6-(1-methylcyclopropyl)imidazo[1,2-a]pyrazin-3-yl)pyridin-2-amine] had a Kd of 3 pM.

Molecule `CC1(c2cn3c(-c4cccc(N[C@@H]5CCNC5)n4)cnc3cn2)CC1` [Compound 3, (R)-6-(6-(1-methylcyclopropyl)imidazo[1,2-a]pyrazin-3-yl)-N-(pyrrolidin-3-yl)pyridin-2-amine] displayed a Kd of 4 pM.

`CC1(c2cn3c(-c4cccc(N[C@H]5CNCC56CC6)n4)cnc3cn2)CC1` [Compound 5, (R)-N-(6-(6-(1-methylcyclopropyl)imidazo[1,2-a]pyrazin-3-yl)pyridin-2-yl)-5-azaspiro[2.4]heptan-7-amine] returned a Kd of 5 pM.

On to `FC(F)(F)C1(c2cn3c(-c4cccc(N[C@@H]5CCNC5)n4)cnc3cn2)CC1` [Compound 10, (R)-N-(pyrrolidin-3-yl)-6-(6-(1-(trifluoromethyl)cyclopropyl)imidazo[1,2-a]pyrazin-3-yl)pyridin-2-amine], for which the dissociation constant Kd was determined as 11 pM.

On to `FC(F)c1cn2c(-c3cccc(N[C@H]4CNC[C@@H]4F)n3)cnc2cn1` [Compound 16, 6-(6-(difluoromethyl)imidazo[1,2-a]pyrazin-3-yl)-N-((3S,4S)-4-fluoropyrrolidin-3-yl)pyridin-2-amine], for which the Kd was 6 pM.

Turning to `FC(F)c1cn2c(-c3cccc(N[C@H]4CNCC[C@@H]4F)n3)cnc2cn1` [Compound 25, 6-(6-(difluoromethyl)imidazo[1,2-a]pyrazin-3-yl)-N-((3S,4S)-4-fluoropiperidin-3-yl)pyridin-2-amine], the Kd is 9 pM.

Consider `CC(C)(O)c1cn2c(-c3cccc(N[C@@H]4CCCNC4)n3)cnc2cn1` [Compound 30, (R)-2-(3-(6-(piperidin-3-ylamino)pyridin-2-yl)imidazo[1,2-a]pyrazin-6-yl)propan-2-ol], for which binding was put at a Kd of 140 pM.

On to `CC(C)(O)c1cn2c(-c3cccc(N[C@H]4CNCC[C@@H]4F)n3)cnc2cn1` [Compound 31, 2-(3-(6-(((3S,4S)-4-fluoropiperidin-3-yl)amino)pyridin-2-yl)imidazo[1,2-a]pyrazin-6-yl)propan-2-ol], for which the Kd worked out at 44 pM.

Turning to `FC(F)(F)COc1cn2c(-c3cccc(N[C@@H]4CCNC4)n3)cnc2cn1` [Compound 38, (R)-N-(pyrrolidin-3-yl)-6-(6-(2,2,2-trifluoroethoxy)imidazo[1,2-a]pyrazin-3-yl)pyridin-2-amine], the Kd amounted to 26 pM.

`F[C@H]1CNC[C@@H]1Nc1cccc(-c2cnc3cnc(C4CC4)cn23)n1` [Compound 50, 6-(6-cyclopropylimidazo[1,2-a]pyrazin-3-yl)-N-((3S,4S)-4-fluoropyrrolidin-3-yl)pyridin-2-amine]: the Kd worked out at 3 pM.

The molecule `Cn1cc(-c2cn3c(-c4cccc(N[C@H]5CNC[C@@H]5F)n4)cnc3cn2)cn1` [Compound 52, N-((3S,4S)-4-fluoropyrrolidin-3-yl)-6-(6-(1-methyl-1H-pyrazol-4-yl)imidazo[1,2-a]pyrazin-3-yl)pyridin-2-amine] registered a Kd of 3 pM.
